In PubChem BioAssay AID179 (DTP/NCI, 2004):
Activity calls are given as the source filed them.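 The calls were made as follows: active = compounds giving half or more protection of infected cells from virus-caused growth loss, again on retest; inactive = the rest.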 Where a SMILES comes first, the peptide text is derived from it.

Tested on: CEM cells HIV-1 protection, formazan growth assay
Assay: NCI AIDS Antiviral Assay
Details: for IC50: measured here: growth of uninfected CEM cells
Procedure, shortened: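 Protection of CEM cells against HIV-1 was scored from cell growth (soluble formazan) across five concentrations, with parallel uninfected cells. Lack of protection may reflect toxicity.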

Structure (SMILES): CC(C)=CCC/C(C)=C/CCC1(C)C2COC(=O)C21 (configuration not stated)
- EC50: > 200 µM
- IC50: 46.8 µM

Structure (SMILES): CCOC(=O)c1cnc2c3c(noc13)CCC2
- EC50: > 200 µM
- IC50: 34.7 µM

Structure (SMILES): CCN(CC)c1cc2oc(=O)cc(C)c2cc1NC(=O)c1ccccc1
- EC50: > 45.7 µM
- IC50: 2.51 µM

Structure (SMILES): CC(=O)N=C1N(/C=C2\C(=O)Oc3ccccc3C2=O)C(=O)/C(=C/c2ccc(Cl)cc2Cl)N1C
- EC50: > 200 µM
- IC50: 34.7 µM

Structure (SMILES): COC12COC(=O)C1C(c1ccc3c(c1)OCO3)c1cc3c(cc1O2)OCO3 (configuration not stated)
- EC50: > 200 µM
- IC50: 9.12 µM

Structure (SMILES): c1ccc2sc(-c3c4ccccc4cc4c3ccc3ccccc34)cc2c1
- EC50: > 200 µM
- IC50: > 200 µM

Structure (SMILES): Nc1ccc2c(=S)c3ccccc3[nH]c2c1
- outcome: inactive

Structure (SMILES): O=c1[nH]c(-c2ccccc2)nc2c1sc1nc3ccccc3n12
- EC50: > 50.1 µM
- IC50: > 50.1 µM

Structure (SMILES): COC(=O)c1cc(C(=CCCN)c2cc(Cl)c(OC)c(C(=O)OC)c2)cc(Cl)c1OC
- EC50: > 200 µM
- IC50: 8.71 µM

Structure (SMILES): CCn1ccc(=O)nc1
- EC50: > 200 µM
- IC50: > 200 µM

Structure (SMILES): CC(C)CC(NC(=O)C(Cc1ccc(O)cc1)NC(=O)C(CO)NC(=O)C(C)NC(=O)C(CCCN=C(N)N)NC(=O)C(CCC(=O)O)NC(=O)C(NC(=O)C(N)CCC(=O)O)C(C)C)C(=O)NC(CO)C(=O)NC(CCCCN)C(=O)O (configuration not stated) (H-EVERASYLSK-OH; configuration not given here)
- outcome: inactive

Structure (SMILES): CC1=NN(C(=O)c2ccc([N+](=O)[O-])cc2)C(=O)C1N=Nc1ccccc1C(=O)O (configuration not stated)
- outcome: inactive

Structure (SMILES): C/C(O)=C/c1nc2sc(C)c(C)c2c(=O)s1
- EC50: > 200 µM
- IC50: 39.8 µM

Structure (SMILES): CCC(=O)OC1(c2ccccc2)CCN(CCC(=O)c2ccccc2)CC1C (configuration not stated)
- EC50: > 200 µM
- IC50: 9.55 µM

Structure (SMILES): CNC(C#N)c1ccc(OC)cc1 (configuration not stated)
- EC50: > 200 µM
- IC50: 105 µM

Structure (SMILES): CN1CC2(CO)C(c3ccccn3)N(C)C(c3ccccn3)C(CO)(C1)C2O (configuration not stated)
- EC50: > 115 µM
- IC50: > 115 µM

Structure (SMILES): S=C(N/N=C\C=N/NC(=S)N1CCCCC1)N1CCCCC1
- EC50: > 2 µM
- IC50: 0.363 µM

Structure (SMILES): CC/C(Cl)=N\OC(=O)Nc1ccc(OC)cc1
- EC50: > 20 µM
- IC50: 6.76 µM

Structure (SMILES): C=C[C@@]1(O)CCCC[C@@H]1CC(Sc1ccccc1)Sc1ccccc1
- EC50: > 200 µM
- IC50: 19.5 µM

Structure (SMILES): Nc1nc(N)c2ncn(CCOC(c3ccccc3)P(=O)(O)O)c2n1 (configuration not stated)
- EC50: > 200 µM
- IC50: > 200 µM

Structure (SMILES): O=[N+]([O-])c1cnc(N(CCO)CCO)s1
- EC50: > 200 µM
- IC50: > 200 µM

Structure (SMILES): NCC1OC(OC2C(N)CC(N)C(O)C2O)C(NC(=O)c2ccccc2)C(O)C1O (configuration not stated)
- outcome: inactive

Structure (SMILES): CN(C)CCC1(C)OCCC2=C1Cc1ccccc12 (configuration not stated)
- EC50: > 200 µM
- IC50: 135 µM

Structure (SMILES): [N-]=[N+]=NC1(Cc2ccccc2)C(=O)c2cccc3c2N(CCC3)C1=O (configuration not stated)
- outcome: inactive

Structure (SMILES): CCOC(=O)c1cc2c(=O)cccnc2o1
- EC50: > 52.5 µM
- IC50: > 52.5 µM

Structure (SMILES): CC(C)(CO)CNc1cc(Cl)nc(N)n1
- EC50: > 200 µM
- IC50: > 200 µM

Structure (SMILES): COC(=O)c1ccc(C)cc1CC1Cc2cc(C)ccc2C1=O (configuration not stated)
- EC50: > 200 µM
- IC50: > 200 µM

Structure (SMILES): CC1CC[C@]2(C(=O)O)CCC3(C)C(=CC(=O)C4[C@@]5(C)CCC(=O)C(C)(C)C5CC[C@]43C)[C@@H]2[C@H]1C (some centres not stated)
- outcome: inactive

Structure (SMILES): O=C1/C(=C/c2ccccc2)CCc2ccc([N+](=O)[O-])cc21
- EC50: > 200 µM
- IC50: 11.2 µM

Structure (SMILES): CC(=O)O[C@@]1(C)C[C@@H](O)[C@]2(O)C=CO[C@@H](OC3OC(CO)C(O)C(O)C3O)[C@@H]21 (some centres not stated)
- outcome: inactive

Structure (SMILES): O=[N+]([O-])c1cccc2nc3ccccc3c(NCCCN3CCOCC3)c12
- EC50: > 0.2 µM
- IC50: 0.0631 µM

Structure (SMILES): Cc1ccc(S(=O)(=O)n2ccn3c(=O)cc(C)nc23)cc1
- EC50: > 200 µM
- IC50: > 200 µM

Structure (SMILES): O=C1CCC2(CC1CCSc1ccccc1)OCCO2 (configuration not stated)
- EC50: > 200 µM
- IC50: 126 µM

Structure (SMILES): CS(=O)(=O)OCCN(CCOS(C)(=O)=O)c1ccc(C=Nc2ccc3oc(=O)ccc3c2)cc1
- EC50: > 135 µM
- IC50: 1.02 µM

Structure (SMILES): O=C1NC(=O)c2ccc3c4c(ccc1c24)C(=O)NC3=O
- EC50: > 200 µM
- IC50: > 200 µM

Structure (SMILES): Nc1c(C(=O)OCc2ccccc2)[nH]c(=O)[nH]c1=O
- EC50: > 200 µM
- IC50: > 200 µM

Structure (SMILES): COc1cc([C@@H]2c3cc4c(cc3[C@H](O)[C@H]3COC(=O)[C@H]23)OCO4)cc(OC)c1OC
- EC50: > 2.29 µM
- IC50: 0.00479 µM

Structure (SMILES): CC(=O)O[C@H]1CC[C@@]2(C)C(=CC[C@H]3C4=CC=C(C(C)=O)[C@@]4(C)CCC32)C1 (some centres not stated)
- outcome: inactive

Structure (SMILES): CCOC(=O)c1nc2cc(C(F)(F)F)ccc2nc1Nc1ccc(OC)c(OC)c1
- outcome: inactive

Structure (SMILES): CN1C(=O)C2C=CC1C1CCC2N(C)C1=O (configuration not stated)
- outcome: inactive

Structure (SMILES): COc1c(OC)c(OC)c(-c2cc(=O)c3c(OC)c(OC)c(OC)c(OC)c3o2)c(OC)c1OC
- EC50: > 200 µM
- IC50: 56.2 µM

Structure (SMILES): Cc1[nH]nc2c1NC(=O)OCC2
- EC50: > 550 µM
- IC50: > 550 µM

Structure (SMILES): COc1ccc(C2=[N+]([O-])c3ccccc3C2=O)cc1
- outcome: inactive

Structure (SMILES): O=C(Nc1ccccc1)c1cc(S(=O)(=O)n2cc[nH]c2=O)c(S)cc1Cl
- EC50: > 200 µM
- IC50: > 200 µM
